Entries after “also recorded” stand apart in the source; their conditions may differ. Read-outs that look alike come from different tables or passages of the source.
Assays:
SKOV3 cells = experiment: Cytotoxicity in α-enolase siRNA transfected SKOV3 cells; conditions: data not shown
A549 cells [1] = experiment: Clonogenic assay, A549 cells; type: cell-based, human; conditions: A549 cells vs control vectors
CaOV3 cells = experiment: MTT cytotoxicity assay, CaOV3 cells transfected with α-enolase RNAi; type: cell-based, human; conditions: for EC50: Homo sapiens, 72 hours post transfection
Text: These observations were expanded by targeting α-enolase in the ovarian cancer cell line, CaOV3.

MCF-7 cells [2] = experiment: Clonogenic assay, MCF-7 cells; type: cell-based, human; conditions: MCF-7 cells
Experimental: Utilizing a clonogenic assay generated additional information concerning cell viability after drug-resistant cells were exposed to siRNA and chemotherapeutics. […] Taxol or Vincristine was added at IC10 or IC50 concentrations determined from MTT experiments for MCF-7 cells. […] The cells were further incubated for an additional 7 days. At the end of the incubation, the cells were stained with addition of a 0.5% Methylene Blue solution in 50% ethanol for 15 min. at RT. The staining solution was then removed and plates were dried overnight. The plates were scanned and the stained colonies were solubilized in 0.1% SDS. The absorbance of the resulting solution was determined by spectrophotometry at 660 nm.

PC-3 cells = experiment: MTT cytotoxicity assay, PC-3 cells transfected with α-enolase siRNA; type: cell-based; conditions: for EC50: Homo sapiens
MDA-435 cells = experiment: cells; type: cell-based, human; conditions: MDA-435 cells; for EC50: Homo sapiens, MDA435
Experimental: Similar tests utilizing α-enolase siRNA were performed on MDA-435 breast adenocarcinoma cells. Chemosensitivity to various drugs was determined for the MDA-435 cells as described above.

SW-480 cells = experiment: cells; type: cell-based, human; conditions: SW-480 cells; for EC50: Homo sapiens, SW480
Experimental: The colorectal adenocarcinoma cell line SW-480 was treated with α-enolase-directed siRNA using the procedures described above.

H460 cells = experiment: MTT cytotoxicity assay, H460 cells transfected with α-enolase siRNA; type: cell-based, human; conditions: for EC50: Homo sapiens
Experimental: To establish the effectiveness of α-enolase silencing on other cancer cell types, H460 non-small cell lung cancer cells were challenged with a chemotherapeutic drug, MTT cytotoxicity assays were carried out and survival curves plotted as shown in FIG. 17.

A549 cells [3] = experiment: MTT cytotoxicity assay, A549 cells transfected with α-enolase siRNA; conditions: for chemosensitivity of α-enolase-silenced cells (words): A549 cells; for EC50: Homo sapiens
Experimental: Small interfering RNA transfected cells were seeded in triplicate into 96-well plates at 5×10^3 cells/well 48 hrs post-transfection. The cells were incubated for an additional 16-24 hrs before they were exposed to increasing concentrations of cytotoxic drugs. […] Appropriate dilutions were made in the respective media for each cell line. Following addition of drugs, incubation was continued for an additional 72 hrs. Twenty-five ml of MTT dye (5 mg/ml) were added into each well and the plate was further incubated at 37° C. for 4 hrs. The dye was solubilized with 10% Triton X-100, 0.01 N HCl and further incubated at 37° C. in the dark for 30 min. Cell viability was determined by measure of absorption at 570 nm in a Wallac multiwell plate reader (PerkinElmer, Inc., Boston, Mass.). The averages of triplicate wells were plotted using the Prism software (GraphPad Software, Inc., San Diego, Calif.).
To investigate if α-enolase is broadly involved in mediating drug resistance to microtubule targeting agents, non-small cell lung cancer cell lines A549 and H460, respectively, were transfected with α-enolase siRNA and enolase expression and viability were assessed.

MCF-7 cells [4] = experiment: MTT cytotoxicity assay, MCF-7 cells transfected with α-enolase siRNA; type: cell-based, human; conditions: MCF-7 cells; for EC50 / IC50: Homo sapiens, MCF7; for IC50 / IC10: from MTT experiments; for EC50 lower in α-enolase-depleted cells vs control siRNA treated cells: on average
Experimental: For a typical siRNA transfection, 1 nmole of the annealed siRNA duplex was mixed with 1.4 ml of Opti-MEM reagent (Invitrogen). In another tube, […] of Oligofectamine reagent (Invitrogen, Carlsbad, Calif.) is mixed with […] of Opti-MEM. The two solutions are combined and mixed gently by inversion and incubated for 20 min. at RT. The resulting solution is added to the cultured cells drop by drop in a 10 cm dish (cells are approximately 40-50% confluent). The next day the transfected cells were trypsinized and seeded in 6 or 96-well plates and further incubated for the indicated amount of time (assay dependent) before further analysis.
To evaluate the effect of α-enolase depletion on the chemosensitivity of cells to cytotoxic agents, MTT assays were performed in breast adenocarcinoma MCF-7 cells transfected with α-enolase specific siRNAs. […] The predicted EC50 values (the effective dose of a compound responsible for a positive effect half-way between baseline and maximum net impact) for the α-enolase-depleted cells are shown in Table 3. Similarly, results using other chemotherapeutic drugs are also shown in the table indicating the sensitivity of breast cancer tissue to α-enolase depletion.

[5] = Caov-3, control, read-out: Control (EC50)
[6] = Caov-3, α-enolase specific RNAi, read-out: α-Enolase (EC50)
[7] = control, read-out: Control (EC50)
[8] = α-enolase specific siRNA, read-out: α-Enolase (EC50)
[9] = Eno-1 siRNA, read-out: Eno-1 (EC50)
[10] = Eno-1 stealth siRNA, read-out: Eno-1 ST (EC50)
[11] = control siRNA, read-out: Control (EC50)
[12] = mock transfection, read-out: Mock (EC50)
[13] = NCI-H460, control, read-out: Control (EC50)
[14] = NCI-H460, α-enolase specific siRNA, read-out: α-Enolase (EC50)
[15] = A549, read-out: α-Enolase (EC50)
[16] = control siRNA, 72 hrs drug, read-out: Control (EC50)

SMILES: CC(=O)O[C@H]1C(=O)[C@@]2(C)[C@H]([C@H](OC(=O)c3ccccc3)[C@]3(O)C[C@H](OC(=O)[C@H](O)[C@@H](NC(=O)c4ccccc4)c4ccccc4)C(C)=C1C3(C)C)[C@]1(OC(C)=O)CO[C@@H]1C[C@@H]2O [Taxol]
- cytotoxic effect in α-enolase-depleted cells (SKOV3 cells): enhanced cytotoxic effect
- sensitivity of α-enolase siRNA cells in clonogenic assay (A549 cells [1]): more sensitive
- decrease of chemotherapeutic drug resistance by α-enolase-directed siRNA vs mock siRNA (CaOV3 cells): 24.6 fold
- EC50 (CaOV3 cells; [5]): 2.69 nM
- EC50 (CaOV3 cells; [6]): 0.11 nM
- cytotoxicity in α-enolase depleted cells in clonogenic assay (MCF-7 cells [2]): enhanced taxol cytotoxicity
- enhancement in sensitivity with α-enolase silencing (PC-3 cells): 10 fold
- EC50 (PC-3 cells; [7]): 0.199 nM
- EC50 (PC-3 cells; [8]): 0.0206 nM
- EC50 (MDA-435 cells; [9]): 0.334 nM
- EC50 (MDA-435 cells; [10]): 0.149 nM
- EC50 (MDA-435 cells; [11]): 1.1 nM
- EC50 (MDA-435 cells; [12]): 0.445 nM
- sensitivity of α-enolase-silenced cells (MDA-435 cells): Increases in sensitivity
- EC50 (SW-480 cells; [7]): 0.276 nM
- EC50 (SW-480 cells; [8]): 0.033 nM
- viability of α-enolase-silenced cells under drug treatment vs control cells (H460 cells): greatest decreases in viability
- EC50 (H460 cells; [13]): 2.24 nM
- EC50 (H460 cells; [14]): 0.602 nM
- chemosensitivity of α-enolase-silenced cells (words) (A549 cells [3]): enhanced chemosensitivity; also recorded: significant shifts in their chemosensitivities
- EC50 (A549 cells [3]; A549, read-out: Control (EC50)): 5.94 nM
- EC50 (A549 cells [3]; [15]): 3.16 nM
- EC50 (MCF-7 cells [4]; [16]): 78.4 nM
- IC50 (MCF-7 cells [4]): 100 nM
- EC50 (MCF-7 cells [4]; [8]): 7.16 nM
- sensitivity of α-enolase silenced cells (MCF-7 cells [4]): substantial increase in their sensitivity
- IC10 (MCF-7 cells [4]): 1 nM
- EC50 lower in α-enolase-depleted cells vs control siRNA treated cells (MCF-7 cells [4]): 10 fold

SMILES: CC[C@]1(O)C[C@H]2CN(CCc3c([nH]c4ccccc34)[C@@](C(=O)OC)(c3cc4c(cc3OC)N(C=O)[C@H]3[C@@](O)(C(=O)OC)[C@H](OC(C)=O)[C@]5(CC)C=CCN6CC[C@]43[C@@H]65)C2)C1 [Vincristine]
- cytotoxic effect in α-enolase-depleted cells (SKOV3 cells): enhanced cytotoxic effect
- sensitivity of α-enolase siRNA cells in clonogenic assay (A549 cells [1]): more sensitive
- decrease of chemotherapeutic drug resistance by α-enolase-directed siRNA vs mock siRNA (CaOV3 cells): 6 fold
- EC50 (CaOV3 cells; [5]): 0.084 nM
- EC50 (CaOV3 cells; [6]): 0.0108 nM
- EC50 (PC-3 cells; [7]): 3400 nM
- EC50 (PC-3 cells; [8]): 1690 nM
- EC50 (MDA-435 cells; [9]): 0.375 nM
- EC50 (MDA-435 cells; [10]): 0.324 nM
- EC50 (MDA-435 cells; [11]): 0.246 nM
- EC50 (MDA-435 cells; [12]): 0.667 nM
- EC50 (SW-480 cells; [7]): 45.8 nM
- EC50 (SW-480 cells; [8]): 0.221 nM
- more sensitive, enolase-depleted vs mock transfected cells (SW-480 cells): approximately 210 times
- chemosensitivity of α-enolase-depleted cells (words) (SW-480 cells; listed as vincristin): greater chemosensitivity
- chemosensitivity of α-enolase-depleted cells (words) (SW-480 cells; listed as vincristine): greatly enhanced chemosensitivity
- viability of α-enolase-silenced cells under drug treatment vs control cells (H460 cells): decreased the viability
- EC50 (H460 cells; [13]): 4.96 nM
- EC50 (H460 cells; [14]): 2.03 nM
- chemosensitivity of α-enolase-silenced cells (words) (A549 cells [3]; listed as vincristin): significant shifts in their chemosensitivities
- chemosensitivity of α-enolase-silenced cells (words) (A549 cells [3]; listed as vincristine): enhanced chemosensitivity
- EC50 (A549 cells [3]; A549, read-out: Control (EC50)): 83.3 nM
- EC50 (A549 cells [3]; [15]): 20 nM
- EC50 (MCF-7 cells [4]; [16]): 163000 nM
- IC50 (MCF-7 cells [4]): 0.25 nM
- EC50 (MCF-7 cells [4]; [8]): 12600 nM
- sensitivity of α-enolase silenced cells (MCF-7 cells [4]): substantial increase in their sensitivity
- IC10 (MCF-7 cells [4]): 0.005 nM
- EC50 lower in α-enolase-depleted cells vs control siRNA treated cells (MCF-7 cells [4]): 12 fold

Reference: patent publication US20070077583A1, “Alpha enolase-directed diagnostics and therapeutics for cancer and chemotherapeutic drug resistance” (Aurelium BioPharma, Inc., priority 2005, published 2007)
